Test results: patent US9969723B2, “3-(4-(benzyloxy)phenyl)hex-4-ynoic acid derivative, method of preparing same and pharmaceutical composition for preventing and treating metabolic disease including same as effective ingredient” (HYUNDAI PHARM CO., LTD, priority 2014, dated 2018)

Experiments:
[1] = biological target: CYP2C9 (Homo sapiens (Human), UniProt P11712); assay: CYP inhibition (BD GENTEST kit); assay type: in vitro ADME; conditions: CYP2C9 enzyme of the BD GENTEST CYP2C9 inhibition kit, pH 7.4, read-out: CYP inhibition (%) 2C9
Procedure: (§1) CYP is the enzyme involved in drug metabolism. So, the inhibition of this enzyme can change the prediction of dose of a drug and toxicity caused by the co-treatment with other drugs. Therefore, the inventors measured the inhibitory effect of the compounds of Examples of the invention on endogenous CYP3A4, CYP2C9, CYP1A2, CYP2D6, and CYP2C19. […] To prepare the Invitrogen kit, the test sample was diluted in distilled water at 2.5× of the final experimental concentration.
(§2) The test sample for BD GENTEST kit was diluted in acetonitrile at 50× of the final experimental concentration. NADPH-coenzyme mixture was prepared by diluting the coenzyme, G6PDH, and regulatory protein included in the kit with distilled water at the concentration instructed by the kit. The prepared 50× sample (4 μL) and the NADPH-coenzyme mixture (96 μL) were mixed in each well of U-bottom 96-well plate, followed by pre-culture for 10 minutes in a 37° C. incubator. Enzyme/substrate mixed solution was prepared by diluting the buffer (0.5 M potassium phosphate, pH 7.4), each CYP450 enzyme/substrate mixed solution included in the kit with distilled water at the instructed concentration. Upon completion of the pre-culture, 100 μL of the enzyme/substrate mixed solution was added in each well of the plate, followed by culture in a 37° C. incubator for 15 minutes (CYP 1A2), 30 minutes (CYP 3A4 and CYP 2C19) or 1 and half hours (CYP 2C9). […] The values obtained above were converted into % as the inhibition rate of the sample by the value of the non-treated group.

[2] = biological target: CYP2C19 (Homo sapiens (Human), UniProt P33261); assay: CYP inhibition (BD GENTEST kit); assay type: in vitro ADME; conditions: CYP2C19 enzyme of the BD GENTEST CYP2C19 inhibition kit, pH 7.4, read-out: CYP inhibition (%) 2C19
Procedure: as §1, §2

[3] = test system: Male Goto-Kakizaki (GK) rats, the type II diabetes animal model (not obesity); assay: Oral glucose tolerance test (OGTT) 2; assay type: in vivo, rat
Procedure: (§3) Male Goto-Kakizaki (GK) rats at 22˜23 weeks, the type II diabetes animal model (not obesity), were adapted at least for 7 days. Only healthy animals were selected thereafter, followed by OGTT. After fasting for 16˜18 hours, 5 rats per group were randomly selected and orally administered with the compounds prepared in Examples 5, 9, 14, 28, 37, and 47 at the dose of 0.3˜10 mg/kg. At this time, 5% polyethyleneglycol (PEG) was orally administered at the same dose to the non-treated group rats. 60 minutes after the sample administration, glucose (4 g/kg) was orally administered thereto at the dose of 5 ml/kg. Then, blood glucose was measured by using Accu-chek active strip (Roche diagnostic Co.). The time for the measurement was set at 60 minutes before the glucose administration (−60), 0 minute, 20 minutes, 40 minutes, 60 minutes, and 120 minutes after the glucose administration, and blood glucose was measured through tail vein puncture.

[4] = biological target: CYP2D6 (Homo sapiens (Human), UniProt P10635); assay: CYP inhibition (Invitrogen Vivid kit); assay type: in vitro ADME; conditions: CYP2D6 P450 BACULOSOMES reagent (Invitrogen kit P2862), probe Vivid CYP450 substrate, read-out: CYP inhibition (%) 2D6
Description: (§4) CYP is the enzyme involved in drug metabolism. So, the inhibition of this enzyme can change the prediction of dose of a drug and toxicity caused by the co-treatment with other drugs. Therefore, the inventors measured the inhibitory effect of the compounds of Examples of the invention on endogenous CYP3A4, CYP2C9, CYP1A2, CYP2D6, and CYP2C19. At this time, Invitrogen (P2862) was used as the CYP2D6 inhibition kit, and BD GENTEST (459100, 459300, 459400, 459500) was used as the CYP1A2, CYP2C9, CYP2C19, and CYP3A4 inhibition kit. To prepare the Invitrogen kit, the test sample was diluted in distilled water at 2.5× of the final experimental concentration.
P450 BACULOSOMES® reagent and reproducer (100×) included in Invitrogen kit were diluted in Vivid® CYP450 reaction buffer (2×) at the concentration that matched the target CYP450. The prepared 2.5× sample (80 μL) and the diluted P450 BACULOSOMES® reagent mixture (100 μL) were mixed in each well of U-bottom 96-well plate, followed by pre-culture for 20 minutes. Vivid® CYP450 substrate and NADP+ (100×) were diluted in Vivid® CYP450 reaction buffer (2×) at the concentration that matched the target CYP450 and the substrate. Upon completion of the pre-culture, substrate-NADP (nicotinamide adenine dinucleotide phosphate) mixed solution (20 μL) was added thereto, followed by reaction for 1 hour. Upon completion of the reaction, the reactant was transferred onto the white plate, and then fluorescence was measured with a microplate reader (CYP 2D6 excitation wavelength: 400 nm, absorption wavelength: 502 nm). […]

[5] = biological target: CYP3A4 (Homo sapiens (Human), UniProt P08684); assay: CYP inhibition (BD GENTEST kit); assay type: in vitro ADME; conditions: CYP3A4 enzyme of the BD GENTEST CYP3A4 inhibition kit, pH 7.4, read-out: CYP inhibition (%) 3A4
Description: as §4
The test sample for BD GENTEST kit was diluted in acetonitrile at 50× of the final experimental concentration. NADPH-coenzyme mixture was prepared by diluting the coenzyme, G6PDH, and regulatory protein included in the kit with distilled water at the concentration instructed by the kit. The prepared 50× sample (4 μL) and the NADPH-coenzyme mixture (96 μL) were mixed in each well of U-bottom 96-well plate, followed by pre-culture for 10 minutes in a 37° C. incubator. Enzyme/substrate mixed solution was prepared by diluting the buffer (0.5 M potassium phosphate, pH 7.4), each CYP450 enzyme/substrate mixed solution included in the kit with distilled water at the instructed concentration. Upon completion of the pre-culture, 100 μL of the enzyme/substrate mixed solution was added in each well of the plate, followed by culture in a 37° C. incubator for 15 minutes (CYP 1A2), 30 minutes (CYP 3A4 and CYP 2C19) or 1 and half hours (CYP 2C9). Upon completion of the reaction, the reactant was transferred onto the white plate, and then fluorescence was measured with a microplate reader (CYP 1A2 and CYP 2C19 excitation wavelength: 410 nm, absorption wavelength: 460 nm; CYP 2C9 and CYP 3A4 excitation wavelength: 409 nm, absorption wavelength: 530 nm). The values obtained above were converted into % as the inhibition rate of the sample by the value of the non-treated group.

[6] = biological target: GPR40 (Homo sapiens (Human), UniProt O14842); assay: Calcium flux GPCR agonist assay (Millipore GPCR profiler, FLIPR TETRA)
Procedure: The compounds of Examples of the invention dissolved in DMSO (dimethyl sulfoxide), PBS (phosphate buffered saline), and DW (distilled water), etc, were diluted three-times with EMD Millipore's GPCR profiler assay buffer. […] Each well was filled with EMD Millipore's GPCR profiler assay buffer. The said EMD Millipore's GPCR profiler assay buffer was HBSS (Hanks Balanced Salt Solution) containing 20 mM HEPES (4-(2-hydroxyethyl)-1-piperazineethanesulfonic acid) and 2.5 mM Probenecid (4-(dipropylsulfamoyl)benzoic acid), whose pH was regulated as 7.4.
The compounds of Examples were duplicated at each concentration. […] Agonist assay was performed by using FLIPR^TETRA. Fluorescence and luminescence baseline were measured. […] To measure the activity of those compounds of Examples, GPCR activity assay was performed for 180 seconds.
When the assay data were not satisfactory, an additional experiment was performed.
All the concentration dependent graphs were made by using GraphPad Prism. The graph was modified by Sigmoidal dose response.

[7] = test system: Male OLETF (Otsuka Long-Evans Tokushima fatty) rats, the type II diabetes animal model (obesity); assay: Oral glucose tolerance test (OGTT) 3; assay type: in vivo, rat
Procedure: as §3, with “OLETF (Otsuka Long-Evans Tokushima fatty)” for “Goto-Kakizaki (GK)”, “29˜30” for “22˜23”, “(obesity),” for “(not obesity),”, “1˜10” for “0.3˜10”

[8] = oral dose 10 mg/kg, values in text

CYP3A4, sequence (P08684 whole entry): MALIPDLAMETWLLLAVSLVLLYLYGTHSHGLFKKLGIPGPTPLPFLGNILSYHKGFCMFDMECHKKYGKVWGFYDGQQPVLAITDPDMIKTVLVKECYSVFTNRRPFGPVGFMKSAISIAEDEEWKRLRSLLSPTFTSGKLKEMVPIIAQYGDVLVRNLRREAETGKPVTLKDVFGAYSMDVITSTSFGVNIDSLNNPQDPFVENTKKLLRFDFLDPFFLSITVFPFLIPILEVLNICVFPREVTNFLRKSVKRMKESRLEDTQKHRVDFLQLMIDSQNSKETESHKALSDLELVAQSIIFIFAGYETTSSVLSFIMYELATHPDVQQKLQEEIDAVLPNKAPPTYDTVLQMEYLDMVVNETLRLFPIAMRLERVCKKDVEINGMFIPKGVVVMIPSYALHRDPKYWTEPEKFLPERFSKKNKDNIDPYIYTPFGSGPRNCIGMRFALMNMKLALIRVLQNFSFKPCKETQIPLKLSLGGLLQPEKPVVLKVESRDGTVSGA
CYP2D6, sequence (P10635 whole entry): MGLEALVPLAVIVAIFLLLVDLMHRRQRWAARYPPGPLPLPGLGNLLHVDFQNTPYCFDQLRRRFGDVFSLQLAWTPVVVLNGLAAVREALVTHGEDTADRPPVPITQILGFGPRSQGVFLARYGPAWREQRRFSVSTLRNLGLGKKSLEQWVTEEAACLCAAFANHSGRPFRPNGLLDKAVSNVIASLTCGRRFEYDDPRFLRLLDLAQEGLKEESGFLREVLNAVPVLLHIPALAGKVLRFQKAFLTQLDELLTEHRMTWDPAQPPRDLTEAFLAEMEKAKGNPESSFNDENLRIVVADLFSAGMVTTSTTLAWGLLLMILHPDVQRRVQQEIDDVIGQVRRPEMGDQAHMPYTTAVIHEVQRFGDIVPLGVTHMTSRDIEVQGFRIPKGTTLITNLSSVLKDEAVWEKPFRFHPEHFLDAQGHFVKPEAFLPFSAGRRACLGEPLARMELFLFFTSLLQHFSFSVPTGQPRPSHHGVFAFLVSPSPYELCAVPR
CYP2C9, sequence (P11712 whole entry): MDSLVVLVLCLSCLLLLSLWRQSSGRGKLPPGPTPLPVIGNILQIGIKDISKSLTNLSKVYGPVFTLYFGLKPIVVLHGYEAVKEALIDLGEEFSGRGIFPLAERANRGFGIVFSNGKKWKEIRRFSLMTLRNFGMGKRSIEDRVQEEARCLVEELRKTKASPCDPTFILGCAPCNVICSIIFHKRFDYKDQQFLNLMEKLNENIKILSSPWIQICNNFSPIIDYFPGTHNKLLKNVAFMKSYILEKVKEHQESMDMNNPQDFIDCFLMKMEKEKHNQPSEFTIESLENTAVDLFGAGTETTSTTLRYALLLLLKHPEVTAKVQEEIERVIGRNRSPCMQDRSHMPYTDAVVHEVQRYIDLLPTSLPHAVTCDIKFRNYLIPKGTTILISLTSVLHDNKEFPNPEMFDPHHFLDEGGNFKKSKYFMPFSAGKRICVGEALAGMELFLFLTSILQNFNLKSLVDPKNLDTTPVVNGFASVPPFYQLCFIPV
GPR40, sequence (O14842 whole entry): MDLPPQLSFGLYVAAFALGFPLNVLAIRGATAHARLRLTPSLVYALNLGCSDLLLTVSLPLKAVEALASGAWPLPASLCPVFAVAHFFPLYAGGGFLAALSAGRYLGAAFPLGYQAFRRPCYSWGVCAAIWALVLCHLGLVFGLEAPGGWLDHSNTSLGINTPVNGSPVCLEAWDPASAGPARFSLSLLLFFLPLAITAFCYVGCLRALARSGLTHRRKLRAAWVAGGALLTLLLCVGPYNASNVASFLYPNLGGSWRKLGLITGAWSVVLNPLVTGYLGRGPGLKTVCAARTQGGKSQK
CYP2C19, sequence (P33261 whole entry): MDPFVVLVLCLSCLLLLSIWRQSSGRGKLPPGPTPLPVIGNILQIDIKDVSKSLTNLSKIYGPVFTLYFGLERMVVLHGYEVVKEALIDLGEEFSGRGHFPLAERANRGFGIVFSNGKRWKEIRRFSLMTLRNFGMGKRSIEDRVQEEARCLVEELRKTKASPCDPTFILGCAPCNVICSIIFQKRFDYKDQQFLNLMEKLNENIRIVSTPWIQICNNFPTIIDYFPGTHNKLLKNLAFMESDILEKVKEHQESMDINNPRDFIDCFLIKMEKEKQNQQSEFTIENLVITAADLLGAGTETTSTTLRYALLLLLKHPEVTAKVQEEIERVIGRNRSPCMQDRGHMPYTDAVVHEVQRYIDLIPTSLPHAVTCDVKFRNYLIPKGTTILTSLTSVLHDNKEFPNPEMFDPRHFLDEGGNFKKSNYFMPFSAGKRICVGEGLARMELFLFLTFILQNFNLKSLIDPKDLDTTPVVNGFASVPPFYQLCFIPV

Question: With `CC#C[C@@H](CC(=O)O)c1ccc(OCc2cccc(C3=CCC4(CC3)OCCO4)c2)cc1` [Example 9, L-lysine (3S)-3-(4-(3-(1,4-dioxaspiro[4,5]dec-7-en-8-yl)benzyloxy)phenyl)hex-4-ynoate] as the compound, how does the inhibition at 1.5 h, 10 µM [1] read?
Answer: Its inhibition at 1.5 h, 10 µM is 47.1%.

Question: And the inhibition at 30 min, 10 µM [2]?
Answer: The inhibition at 30 min, 10 µM was 3.7%.

Question: What about the “% AUC” value ([3]; oral dose 0.3 mg/kg) of the same compound?
Answer: The value was “C (under 25.0%)”.

Question: What about the “% AUC” value ([3]; oral dose 1 mg/kg) of the same compound?
Answer: The value was “C (under 25.0%)”.

Question: What about the “% AUC” value ([3]; oral dose 3 mg/kg) of the same compound?
Answer: Its value is “A (over 35.0%)”.

Question: What about the “% AUC” value ([3]; oral dose 10 mg/kg) of the same compound?
Answer: The value was “A (over 35.0%)”.

Question: What about the “hypoglycemic effect by that of the non-treated group” value [3, 8] of the same compound?
Answer: The value was “more than 35.0%”.

Question: What about the inhibition at 1 h, 10 µM [4] of the same compound?
Answer: The inhibition at 1 h, 10 µM was 13.9%.

Question: What about the inhibition at 30 min, 10 µM [5] of the same compound?
Answer: Its inhibition at 30 min, 10 µM is 15.5%.

Question: And the EC50 [6]?
Answer: The EC50 was less than 1 nM.

Question: What about the “% AUC” value ([7]; oral dose 1 mg/kg) of the same compound?
Answer: The value was “B (25.0-35.0%)”.

Question: And the “% AUC” value ([7]; oral dose 3 mg/kg)?
Answer: The value was “A (over 35.0%)”.

Question: What about the “% AUC” value ([7]; oral dose 10 mg/kg) of the same compound?
Answer: The value was “A (over 35.0%)”.

Question: And the “hypoglycemic effect compared with the non-treated group” value [7, 8]?
Answer: The value was “more than 35.0%”.
